Test system: HUVEC/MSC spheroids viability
Assay: Human HUVEC/MSC cell line growth inhibition [KRAS2];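 for viability, T/C: percent of DMSO vehicle control luminescence so 100% = untreated viability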
Conditions: for viability, T/C: stronger effect = lower value
How it was run: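 Stroma-only multicellular spheroids, formed from HUVEC and human MSCs at passages </=5, received RAS-pathway inhibitors with or without a second targeted drug. Dosing followed half-log dilutions from clinically achievable levels.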

[1] = curve of first compound, second compound 0.0316 µM
[2] = curve of first compound, second compound 0.1 µM
[3] = curve of first compound, second compound 0.316 µM
[4] = curve of first compound, second compound 1 µM
[5] = curve of first compound, second compound 3.16 µM
[6] = curve of first compound, second compound 10 µM
[7] = second compound 0.0316 µM, first compound 0.0316 µM
[8] = second compound 0.0316 µM, first compound 0.1 µM
[9] = second compound 0.1 µM, first compound 0.0316 µM
[10] = second compound 0.1 µM, first compound 0.1 µM
[11] = second compound 0.316 µM, first compound 0.0316 µM
[12] = second compound 0.316 µM, first compound 0.1 µM
[13] = second compound 1 µM, first compound 0.0316 µM
[14] = second compound 1 µM, first compound 0.1 µM
[15] = second compound 3.16 µM, first compound 0.0316 µM
[16] = second compound 3.16 µM, first compound 0.1 µM
[17] = second compound 10 µM, first compound 0.0316 µM
[18] = second compound 10 µM, first compound 0.1 µM

## COc1cc2nccc(Oc3ccc(NC(=O)C4(C(=O)Nc5ccc(F)cc5)CC4)cc3)c2cc1OC + C=CC(=O)N1CCN(c2nc(OCC3CCCN3C)nc3c2CCN(c2cccc4cccc(C)c24)C3)CC1CC#N
Curve of first compound, second compound 0.00949 µM
  IC50: 4.77 µM
Curve of first compound, second compound 0.03 µM
  IC50: 5.94 µM
Curve of first compound, second compound 0.0949 µM
  IC50: 8.74 µM
Curve of first compound, second compound 0.3 µM
  IC50: 7.29 µM
Curve of first compound, second compound 0.949 µM
  IC50: > 10 µM
Curve of first compound, second compound 3 µM
  IC50: 3.8 µM
Second compound 0.00949 µM, first compound 0.0316 µM
  viability, T/C: 88.1%
Second compound 0.00949 µM, first compound 0.1 µM
  viability, T/C: 102%
Second compound 0.00949 µM, first compound 0.316 µM
  viability, T/C: 71.1%
Second compound 0.00949 µM, first compound 1 µM
  viability, T/C: 65.7%
Second compound 0.00949 µM, first compound 3.16 µM
  viability, T/C: 76.6%
Second compound 0.00949 µM, first compound 10 µM
  viability, T/C: 22%
Second compound 0.03 µM, first compound 0.0316 µM
  viability, T/C: 70.9%
Second compound 0.03 µM, first compound 0.1 µM
  viability, T/C: 80.5%
Second compound 0.03 µM, first compound 0.316 µM
  viability, T/C: 77.1%
Second compound 0.03 µM, first compound 1 µM
  viability, T/C: 59.8%
Second compound 0.03 µM, first compound 3.16 µM
  viability, T/C: 77.8%
Second compound 0.03 µM, first compound 10 µM
  viability, T/C: 30.8%
Second compound 0.0949 µM, first compound 0.0316 µM
  viability, T/C: 82.5%
Second compound 0.0949 µM, first compound 0.1 µM
  viability, T/C: 78.6%
Second compound 0.0949 µM, first compound 0.316 µM
  viability, T/C: 74%
Second compound 0.0949 µM, first compound 1 µM
  viability, T/C: 77.4%
Second compound 0.0949 µM, first compound 3.16 µM
  viability, T/C: 88.1%
Second compound 0.0949 µM, first compound 10 µM
  viability, T/C: 46%
Second compound 0.3 µM, first compound 0.0316 µM
  viability, T/C: 61.5%
Second compound 0.3 µM, first compound 0.1 µM
  viability, T/C: 80.8%
Second compound 0.3 µM, first compound 0.316 µM
  viability, T/C: 85.7%
Second compound 0.3 µM, first compound 1 µM
  viability, T/C: 63.9%
Second compound 0.3 µM, first compound 3.16 µM
  viability, T/C: 86.6%
Second compound 0.3 µM, first compound 10 µM
  viability, T/C: 40.4%
Second compound 0.949 µM, first compound 0.0316 µM
  viability, T/C: 61.9%
Second compound 0.949 µM, first compound 0.1 µM
  viability, T/C: 71.8%
Second compound 0.949 µM, first compound 0.316 µM
  viability, T/C: 73.3%
Second compound 0.949 µM, first compound 1 µM
  viability, T/C: 83%
Second compound 0.949 µM, first compound 3.16 µM
  viability, T/C: 75.9%
Second compound 0.949 µM, first compound 10 µM
  viability, T/C: 38.5%
Second compound 3 µM, first compound 0.0316 µM
  viability, T/C: 75.9%
Second compound 3 µM, first compound 0.1 µM
  viability, T/C: 80.4%
Second compound 3 µM, first compound 0.316 µM
  viability, T/C: 92.4%
Second compound 3 µM, first compound 1 µM
  viability, T/C: 84.1%
Second compound 3 µM, first compound 3.16 µM
  viability, T/C: 59.4%
Second compound 3 µM, first compound 10 µM
  viability, T/C: 0.35%

## CC(C)NCC(C(=O)N1CCN(c2ncnc3c2C(C)CC3O)CC1)c1ccc(Cl)cc1 (stereo not drawn) + CC1OCC2(CCN(c3cnc(Sc4ccnc(N)c4Cl)c(N)n3)CC2)C1N
[1]
  IC50: 7.88 µM
[2]
  IC50: 6.15 µM
[3]
  IC50: 2.55 µM
[4]
  IC50: 1.31 µM
[5]
  IC50: 0.564 µM
[6]
  IC50: 0.228 µM
[7]
  viability, T/C: 115%
[8]
  viability, T/C: 109%
Second compound 0.0316 µM, first compound 0.316 µM
  viability, T/C: 93.5%
Second compound 0.0316 µM, first compound 1 µM
  viability, T/C: 66.2%
Second compound 0.0316 µM, first compound 3.16 µM
  viability, T/C: 56.2%
Second compound 0.0316 µM, first compound 10 µM
  viability, T/C: 47.6%
[9]
  viability, T/C: 123%
[10]
  viability, T/C: 107%
Second compound 0.1 µM, first compound 0.316 µM
  viability, T/C: 90.9%
Second compound 0.1 µM, first compound 1 µM
  viability, T/C: 59.6%
Second compound 0.1 µM, first compound 3.16 µM
  viability, T/C: 57.3%
Second compound 0.1 µM, first compound 10 µM
  viability, T/C: 46.1%
[11]
  viability, T/C: 94.1%
[12]
  viability, T/C: 107%
Second compound 0.316 µM, first compound 0.316 µM
  viability, T/C: 98.1%
Second compound 0.316 µM, first compound 1 µM
  viability, T/C: 68.1%
Second compound 0.316 µM, first compound 3.16 µM
  viability, T/C: 49.5%
Second compound 0.316 µM, first compound 10 µM
  viability, T/C: 38%
[13]
  viability, T/C: 89.6%
[14]
  viability, T/C: 91%
Second compound 1 µM, first compound 0.316 µM
  viability, T/C: 69.8%
Second compound 1 µM, first compound 1 µM
  viability, T/C: 56.4%
Second compound 1 µM, first compound 3.16 µM
  viability, T/C: 36.4%
Second compound 1 µM, first compound 10 µM
  viability, T/C: 31.6%
[15]
  viability, T/C: 80.3%
[16]
  viability, T/C: 74.4%
Second compound 3.16 µM, first compound 0.316 µM
  viability, T/C: 58.3%
Second compound 3.16 µM, first compound 1 µM
  viability, T/C: 43.1%
Second compound 3.16 µM, first compound 3.16 µM
  viability, T/C: 22.1%
Second compound 3.16 µM, first compound 10 µM
  viability, T/C: 21%
[17]
  viability, T/C: 65.1%
[18]
  viability, T/C: 62.4%
Second compound 10 µM, first compound 0.316 µM
  viability, T/C: 43.4%
Second compound 10 µM, first compound 1 µM
  viability, T/C: 30.8%
Second compound 10 µM, first compound 3.16 µM
  viability, T/C: 14.3%
Second compound 10 µM, first compound 10 µM
  viability, T/C: 5.59%

## CC(=O)OC12COC1CC(O)C1(C)C(=O)C(O)C3=C(C)C(OC(=O)C(O)C(NC(=O)OC(C)(C)C)c4ccccc4)CC(O)(C(OC(=O)c4ccccc4)C21)C3(C)C (stereo not drawn)
Compound 0.00949 µM
  viability, T/C: 45.1% [middle of 5 runs]
Compound 0.03 µM
  viability, T/C: 44.2% [middle of 5 runs]
Compound 0.0949 µM
  viability, T/C: 47.2% [middle of 5 runs]
Compound 0.3 µM
  viability, T/C: 47.1% [middle of 4 runs]
Compound 0.949 µM
  viability, T/C: 47.9% [middle of 5 runs]
Compound 3 µM
  viability, T/C: 58.1% [middle of 5 runs]
Curve of compound
  IC50: < 0.00949 µM

## CN(C)C/C=C/C(=O)Nc1cc2c(Nc3ccc(F)c(Cl)c3)ncnc2cc1O[C@H]1CCOC1 + COc1cc2nc(C)nc(NC(C)c3cc(N)cc(C(F)(F)F)c3)c2cc1OC1CCOC1
[1]
  IC50: > 0.1 µM
[2]
  IC50: > 0.1 µM
[3]
  IC50: > 0.1 µM
[4]
  IC50: > 0.1 µM
[5]
  IC50: > 0.1 µM
[6]
  IC50: > 0.1 µM
Second compound 0.0316 µM, first compound 0.000316 µM
  viability, T/C: 98.6%
Second compound 0.0316 µM, first compound 0.001 µM
  viability, T/C: 110%
Second compound 0.0316 µM, first compound 0.00316 µM
  viability, T/C: 104%
Second compound 0.0316 µM, first compound 0.01 µM
  viability, T/C: 92.8%
[7]
  viability, T/C: 86.8%
[8]
  viability, T/C: 107%
Second compound 0.1 µM, first compound 0.000316 µM
  viability, T/C: 96.3%
Second compound 0.1 µM, first compound 0.001 µM
  viability, T/C: 90.2%
Second compound 0.1 µM, first compound 0.00316 µM
  viability, T/C: 96.8%
Second compound 0.1 µM, first compound 0.01 µM
  viability, T/C: 73.7%
[9]
  viability, T/C: 90.5%
[10]
  viability, T/C: 85.1%
Second compound 0.316 µM, first compound 0.000316 µM
  viability, T/C: 132%
Second compound 0.316 µM, first compound 0.001 µM
  viability, T/C: 102%
Second compound 0.316 µM, first compound 0.00316 µM
  viability, T/C: 86.9%
Second compound 0.316 µM, first compound 0.01 µM
  viability, T/C: 99.3%
[11]
  viability, T/C: 74.8%
[12]
  viability, T/C: 97.3%
Second compound 1 µM, first compound 0.000316 µM
  viability, T/C: 112%
Second compound 1 µM, first compound 0.001 µM
  viability, T/C: 104%
Second compound 1 µM, first compound 0.00316 µM
  viability, T/C: 97.6%
Second compound 1 µM, first compound 0.01 µM
  viability, T/C: 84%
[13]
  viability, T/C: 91.6%
[14]
  viability, T/C: 104%
Second compound 3.16 µM, first compound 0.000316 µM
  viability, T/C: 91.6%
Second compound 3.16 µM, first compound 0.001 µM
  viability, T/C: 99.1%
Second compound 3.16 µM, first compound 0.00316 µM
  viability, T/C: 76.3%
Second compound 3.16 µM, first compound 0.01 µM
  viability, T/C: 95.8%
[15]
  viability, T/C: 75.3%
[16]
  viability, T/C: 83.7%
Second compound 10 µM, first compound 0.000316 µM
  viability, T/C: 60.7%
Second compound 10 µM, first compound 0.001 µM
  viability, T/C: 85.5%
Second compound 10 µM, first compound 0.00316 µM
  viability, T/C: 80%
Second compound 10 µM, first compound 0.01 µM
  viability, T/C: 59.6%
[17]
  viability, T/C: 74.4%
[18]
  viability, T/C: 74.4%
